# Test system: blood-brain barrier of stroke rat
# Assay: Blood-brain barrier permeability of stroke rat (middle cerebral artery occlusion model) by Evans blue dye, optical image and IVIS 100 fluorescence imaging of the whole brain
# Type: in vivo, SD (Sprague Dawley) rat
# Conditions: for presence of blue dye in brain tissue (optical image, FIG. 2): 30 minutes distribution, transcardial perfusion
# Description: FIG. 1 is a schematic view of an evaluation process of the present invention. As shown, the invention is a process of evaluating the blood-brain barrier permeability of a stroke rat by using fluorescent substance. The process of the invention uses Evans blue dye having spontaneous fluorescence properties, in combination with the use of a new non-invasive in vivo imaging system (IVIS), to obtain fluorescent signals so as to assess the change in the blood-brain barrier permeability of rodents after a cerebral artery stroke model surgery. In operation, an Evans blue dye 11 is injected into a stroke rat 1 of middle cerebral artery occlusion model. A non-invasive in vivo imaging system 12 is used to detect the fluorescence distribution of the whole brain, and obtain images combined by the fluorescence images and optical images for the whole brain tissue. Thereby, the change in the blood-brain barrier permeability of the stroke rat can be completely realized.
# FIG. 2 is an optical image of the whole brain tissue after the injection of Evans blue dye according to the invention. FIG. 3 is an integrated image combined the fluorescence images with the optical images by using an IVIS 100 system according to the invention. As shown, in a preferred embedment, the invention uses a SD (Sprague Dawley) rat as the stroke animal model subject to transient bilateral common carotid artery and right middle cerebral artery ligation. After the rat is anesthetized, the surgery procedure is described roughly as follows. The skull of the rat is opened by drilling in order to find the right middle cerebral artery. A 10-0 needle is used to take the right middle cerebral artery and rotate it 90 degrees. It is ensured that the blood cannot flow smoothly under the observation by a microscope. Then, both sides of the common carotid artery are subject to ligation for 90 minutes. After the stitches have been removed, wounds are sutured to allow the rat to be recovered.
# Three groups are provided in the experiment, in which a sham group is a rat whose skull is opened without the bilateral common carotid artery and right middle cerebral artery ligation so as to exclude the impact caused by drilling the skull; a control group is the blank rat without any surgery; and a surgery group is a stroke rat whose skull is opened to perform the middle cerebral artery ligation.
# Evans blue dye is dissolved in saline and injected intravenously into the rat via its tail 24 hours after surgery. After distribution for 30 minutes, the rat is anesthetized for transcardial perfusion in order to wash away the dye within the blood vessels. The IVIS 100 (Caliper) system is used to detect the fluorescence distribution of the whole brain tissue. The Evans blue dye can be excited by the light of 620 nanometer (nm) wavelengths to emit the light of 680 nm wavelength which can be detected by the IVIS 100 system and further converted into images (as shown in FIG. 3).
structure (smiles),measurement,setting,value
"Cc1cc(-c2ccc(/N=N/c3ccc4c(S(=O)(=O)O)cc(S(=O)(=O)O)c(N)c4c3O)c(C)c2)ccc1/N=N/c1ccc2c(S(=O)(=O)O)cc(S(=O)(=O)O)c(N)c2c1O [Evans blue dye, Evans blue]","fluorescence of whole brain tissue (IVIS 100, excitation 620 nm, emission 680 nm, FIG. 3)",control group (blank rat without any surgery),fluorescence is not obvious in the brain tissue
same,"presence of blue dye in brain tissue (optical image, FIG. 2)","control group (blank rat without any surgery), dye i.v. via tail",no presence of the blue dye in the brain tissue
same,"fluorescence of whole brain tissue (IVIS 100, excitation 620 nm, emission 680 nm, FIG. 3)",sham group (skull opened without ligation),fluorescence is not obvious in the brain tissue
same,"presence of blue dye in brain tissue (optical image, FIG. 2)","sham group (skull opened without ligation), dye i.v. via tail 24 hours after surgery",no presence of the blue dye in the brain tissue
same,"fluorescence of whole brain tissue (IVIS 100, excitation 620 nm, emission 680 nm, FIG. 3)","surgery group (stroke rat), 24 hours after stroke surgery",fluorescence signals are detected in the right brain
same,"presence of blue dye in brain tissue (optical image, FIG. 2)","surgery group (stroke rat), dye i.v. via tail 24 hours after surgery",leak into the interstitial cells of the right brain
